These results are taken from patent publication EP4725957A1, “GROUP OF CYCLIC ALKALINE LIPOPEPTIDE COMPOUNDS, AND PREPARATION METHOD THEREFOR AND USE THEREOF” (Institute of Medicinal Biotechnology, Chinese Academy of …, priority 2023, dated 2024).

Structures are written as SMILES. Converted amounts (≈) assume the structure as drawn. Bridge positions count the residues as written; N and C are the ends. Square brackets hold non-standard residues; d marks the D form. Peptide text beside a SMILES is read from it. * marks the point of attachment. Heptanoyl(6-Me) = CC(C)CCCCC(=O)*; Nonanoyl = CCCCCCCCC(=O)*; X1 = CC[C@H](C)CCCCC(=O)*; dDab = NCC[C@@H](N)C(=O)O; Heptanoyl = CCCCCCC(=O)*; Octanoyl = CCCCCCCC(=O)*; Dab = NCC[C@H](N)C(=O)O; Dap = NC[C@H](N)C(=O)O Where only a bound is given, the exact number is not on record here.

What all share (assay type): cell-based
Data set [1] deals with Acinetobacter baumannii ABA19-1. The following applies: ABA19-1. As to the method: (§1) The minimal inhibitory concentration (MIC) was determined by the broth microdilution method according to the recommended procedures of the Clinical and Laboratory Standards Institute (CLSI).
(§2) An appropriate amount of the cyclic lipopeptide compounds prepared in Examples 1-120 and the reference standards were weighed and dissolved in sterile pure water. An appropriate volume of the mother solution was subjected to ten-fold dilution with sterile Mueller-Hinton (MH) broth to a concentration of 0.256 mg/mL. Half of the drug solution was aliquoted into 96-well reagent reservoirs, while the other half was subjected to two-fold serial dilution with sterile MH broth before being transferred into deep-well reagent reservoirs. The above steps were repeated, so that the drug concentrations in the reagent reservoirs were adjusted to 128, 64, 32, 16, 8, 4, 2, 1, 0.5, 0.25, 0.125 and 0.06 mg/L in sequence, and all solutions were prepared and used immediately. Several colonies were picked from agar plates cultured for 18-24 h and directly suspended in sterile normal saline, and the concentration of the bacterial suspension was adjusted to 0.5 McFarland units. The calibrated bacterial suspension was diluted with MH broth to a concentration of (4-8) × 10^5 colony-forming units per milliliter (CFU/mL) and prepared and used immediately. A volume of 100 µL of the aforementioned compounds of the present disclosure (e.g., the compounds prepared in the examples) and reference solutions at different concentrations was separately pipetted into wells 1 to 12 of sterile 96-well polystyrene plates, and an additional 100 µL of the aforementioned inoculum was added to each well. The final concentrations of the samples in the wells were adjusted to 64, 32, 16, 8, 4, 2, 1, 0.5, 0.25, 0.125, 0.06 and 0.03 mg/L, respectively, and the final concentration of the inoculum in each well was (2-4) × 10^5 CFU/mL. Additional growth control wells were set up, each containing 100 µL of the inoculum and 100 µL of sterile MH broth. The test substances and inocula in all wells were mixed thoroughly and then sealed. The inoculated 96-well plates were incubated in an incubator at 35-37°C for 16-20 h.
(§3) The strains used for the antibacterial activity assay were obtained from the American Type Culture Collection (ATCC) and clinical isolates.
(§4) The strains employed for the antibacterial activity assay included Escherichia coli ATCC BAA-2523, ATCC BAA-2340 (KPC), Klebsiella pneumoniae KPN+19-15, ATCC BAA-1705 (KPC), Pseudomonas aeruginosa PAE19-3, ATCC 27853, Acinetobacter baumannii ABA19-1, and NCTC 13304 (OXA-27).

Data set [2] has as its system Acinetobacter baumannii NCTC 13304 (OXA-27). The following applies: NCTC 13304. As to the method:
as §1, §2, §3, §4

In data set [3] the test system is Escherichia coli ATCC BAA-2340 (KPC). To be noted: ATCC BAA-2340. The method, then: as §1, §2, §3, §4
Data set [4] concerns Escherichia coli ATCC BAA-2523. The following applies: ATCC BAA-2523. As to the method: as §1, §2, §3, §4
In data set [5] the test system is Klebsiella pneumoniae ATCC BAA-1705 (KPC). To be noted: ATCC BAA-1705. As to the method: as §1, §2, §3, §4
Data set [6] deals with Klebsiella pneumoniae KPN+19-15. The following applies: KPN+19-15. The method, then:
as §1, §2, §3, §4

Data set [7] relates to Pseudomonas aeruginosa ATCC 27853. To be noted: ATCC 27853. The method, then:
as §1, §2, §3, §4

The subject of data set [8] is Pseudomonas aeruginosa PAE19-3. To be noted: PAE19-3. As to the method: as §1, §2, §3, §4
Data set [9] can be described thus: Nephrotoxicity assay: in vitro cytotoxicity of HK-2 cells by CCK-8 assay. The following applies: human, HK-2 cells (human renal), 72 h incubation with drug-containing medium. As to the method:
In vitro cytotoxicity detection of HK-2 cells was performed by the CCK-8 assay.
The culture medium for human renal HK-2 cells was a complete RPMI-1640 medium (Invitrogen) supplemented with 10% fetal bovine serum (FBS, Gibco). The cryopreservation solution was composed of 90% FBS and 10% dimethyl sulfoxide (DMSO), and the cells were preserved long-term in liquid nitrogen. Cells were cultured in a sterile incubator with a humidified atmosphere containing 5% CO2 at 37°C. When the cell density reached 70%-80%, cell digestion and subculture were conducted. The cyclic lipopeptide compounds prepared in Examples 1-120 were weighed and dissolved in sterile water to prepare a mother solution with a concentration of 1 mg/mL. Drug-containing culture media were then formulated, with the final concentrations set as 500, 250, 200, 100, 50, 25, and 12.5 µg/mL, respectively. Cells were adjusted to a density of 5 × 10^4 cells/mL and seeded into 96-well plates, with 100 µL of cell suspension added to each well. After stable incubation for 24 h, the original medium was replaced with the prepared drug-containing medium, and the plates were incubated in the incubator for an additional 72 h. The medium was gently aspirated, and 100 µL of blank medium containing 10% CCK-8 was added to each well. After incubation in the incubator for 3 h, the optical density (OD) values at 450 nm were measured using a BIOTEK microplate reader. The experiment was repeated three times. For each replicate, polymyxin B was set as the positive drug, and a drug-free blank group was established as the control. The cell viability (%) was calculated by the formula: Cell viability (%) = [(OD of drug-treated group - OD of zero-setting) / (OD of drug-free group - OD of zero-setting)] × 100%. The half-maximal inhibitory concentration (IC50) values were calculated through logarithmic regression analysis.
The cells used for the nephrotoxicity assay were obtained from the ATCC ( American Type Culture Collection). The Cell Counting Kit-8 (CCK-8) used in the assay was supplied by Beyotime Biotechnology Co., Ltd.
(Formazan colour is commonly taken as a measure of viable cells.)

A word on the MIC: it is the smallest concentration in the dilution series that meets the test's criterion for growth inhibition. A high value points to a less susceptible organism. Usually IC50 stands for the concentration that inhibits the measured activity by half. High values mean weaker potency in that assay, low ones greater potency in that assay. On to `CCCCCCCCC(=O)N[C@@H](CCN)C(=O)N[C@H](C(=O)N[C@@H](CN)C(=O)N[C@H]1CCNC(=O)[C@H]([C@@H](C)O)NC(=O)[C@H](CCN)NC(=O)[C@H](CCN)NC(=O)[C@H]([C@@H](C)O)NC(=O)[C@@H](Cc2ccccc2)NC(=O)[C@H](CCN)NC1=O)[C@@H](C)O` [Compound 10, Nonanoyl-Dab-Thr-Dap-ring(4-10)[Dab-Dab-D-Phe-Thr-Dab-Dab-Thr]] (Nonanoyl-[Dab]T[Dap][Dab][Dab][dF]T[Dab][Dab]T; lactam 4-C), for which the MIC in data set [1], in data set [2], in data set [3], in data set [4], in data set [5] and in data set [6] was 0.06 µg/mL (≈ 0.051 µM) each time. The MIC is 0.25 µg/mL (≈ 0.212 µM) in [7] and 0.5 µg/mL (≈ 0.425 µM) in [8]. This molecule also displayed a half-maximal inhibitory concentration (IC50) at 72 h in [9] of 350 ± 30.7 µg/mL (≈ 297 µM).
As to `CC[C@H](C)CCCCC(=O)N[C@@H](CCN)C(=O)N[C@H](C(=O)N[C@H](CCN)C(=O)N[C@H]1CCNC(=O)[C@H]([C@@H](C)O)NC(=O)[C@H](CCN)NC(=O)[C@H](CCN)NC(=O)[C@H]([C@@H](C)O)NC(=O)[C@@H](Cc2ccccc2)NC(=O)[C@H](CCN)NC1=O)[C@@H](C)O` [Compound 11, (S)-6-methyloctanoyl-Dab-Thr-D-Dab-ring(4-10)[Dab-Dab-D-Phe-Thr-Dab-Dab-Thr]] (X1-[Dab]T[dDab][Dab][Dab][dF]T[Dab][Dab]T; lactam 4-C), the MIC in [1], in data set [2], in [3], in data set [4], in data set [5] and in data set [6] was not above 0.03 µg/mL each time. In addition, the MIC in [7] and in [8] was 1 µg/mL (≈ 0.839 µM) each time. In addition, the IC50 at 72 h in data set [9] amounted to 371 ± 54.6 µg/mL (≈ 311 µM).
On to `CC(C)CCCCC(=O)N[C@@H](CCN)C(=O)N[C@H](C(=O)N[C@H](CCN)C(=O)N[C@H]1CCNC(=O)[C@H]([C@@H](C)O)NC(=O)[C@H](CCN)NC(=O)[C@H](CCN)NC(=O)[C@H]([C@@H](C)O)NC(=O)[C@@H](Cc2ccccc2)NC(=O)[C@H](CCN)NC1=O)[C@@H](C)O` [Compound 12, 6-methylheptanoyl-Dab-Thr-D-Dab-ring(4-10)[Dab-Dab-D-Phe-Thr-Dab-Dab-Thr]] ({Heptanoyl(6-Me)}-[Dab]T[dDab][Dab][Dab][dF]T[Dab][Dab]T; lactam 4-C), for which the MIC is recorded as 0.06 µg/mL (≈ 0.051 µM) in data set [1]; not above 0.03 µg/mL in [2]; not above 0.03 µg/mL in data set [3]; not above 0.03 µg/mL in data set [4]; 0.125 µg/mL (≈ 0.106 µM) in data set [5]; not above 0.03 µg/mL in data set [6]. For the same molecule, the MIC in [7] and in data set [8] was 0.5 µg/mL (≈ 0.425 µM) each time. In data set [9], this molecule displayed an IC50 at 72 h of more than 500 µg/mL.
Take `CCCCCCCC(=O)N[C@@H](CCN)C(=O)N[C@H](C(=O)N[C@H](CCN)C(=O)N[C@H]1CCNC(=O)[C@H]([C@@H](C)O)NC(=O)[C@H](CCN)NC(=O)[C@H](CCN)NC(=O)[C@H]([C@@H](C)O)NC(=O)[C@@H](Cc2ccccc2)NC(=O)[C@H](CCN)NC1=O)[C@@H](C)O` [Compound 13, Octanoyl-Dab-Thr-D-Dab-ring(4-10)[Dab-Dab-D-Phe-Thr-Dab-Dab-Thr]] (Octanoyl-[Dab]T[dDab][Dab][Dab][dF]T[Dab][Dab]T; lactam 4-C): the MIC is recorded as not above 0.03 µg/mL in data set [1]; not above 0.03 µg/mL in data set [2]; not above 0.03 µg/mL in data set [3]; not above 0.03 µg/mL in [4]; 0.06 µg/mL (≈ 0.051 µM) in [5]; not above 0.03 µg/mL in data set [6]. The MIC in data set [7] and in data set [8] was 1 µg/mL (≈ 0.849 µM) each time. This molecule came in with a half-maximal inhibitory concentration (IC50) at 72 h in data set [9] of more than 500 µg/mL.
Consider `CCCCCCC(=O)N[C@@H](CCN)C(=O)N[C@H](C(=O)N[C@H](CCN)C(=O)N[C@H]1CCNC(=O)[C@H]([C@@H](C)O)NC(=O)[C@H](CCN)NC(=O)[C@H](CCN)NC(=O)[C@H]([C@@H](C)O)NC(=O)[C@@H](Cc2ccccc2)NC(=O)[C@H](CCN)NC1=O)[C@@H](C)O` [Compound 14, Heptanoyl-Dab-Thr-D-Dab-ring(4-10)[Dab-Dab-D-Phe-Thr-Dab-Dab-Thr]] (Heptanoyl-[Dab]T[dDab][Dab][Dab][dF]T[Dab][Dab]T; lactam 4-C), for which the MIC amounted to 0.03 µg/mL (≈ 0.0258 µM) in [1]; 0.03 µg/mL (≈ 0.0258 µM) in data set [2]; 0.03 µg/mL (≈ 0.0258 µM) in [3]; 0.03 µg/mL (≈ 0.0258 µM) in data set [4]; 0.06 µg/mL (≈ 0.0516 µM) in data set [5]; 0.03 µg/mL (≈ 0.0258 µM) in [6]. Besides, the MIC in data set [7] and in [8] was 2 µg/mL (≈ 1.72 µM) in each case. Further, in data set [9], the half-inhibitory concentration (IC50) at 72 h is more than 500 µg/mL.
Turning to `CCCCCCCCC(=O)N[C@@H](CCN)C(=O)N[C@H](C(=O)N[C@H](CCN)C(=O)N[C@H]1CCNC(=O)[C@H]([C@@H](C)O)NC(=O)[C@H](CCN)NC(=O)[C@H](CCN)NC(=O)[C@H]([C@@H](C)O)NC(=O)[C@@H](Cc2ccccc2)NC(=O)[C@H](CCN)NC1=O)[C@@H](C)O` [Compound 15, Nonanoyl-Dab-Thr-D-Dab-ring(4-10)[Dab-Dab-D-Phe-Thr-Dab-Dab-Thr]] (Nonanoyl-[Dab]T[dDab][Dab][Dab][dF]T[Dab][Dab]T; lactam 4-C), the minimum inhibitory concentration (MIC) in data set [1], in [2], in data set [3], in [4], in [5] and in data set [6] was 0.06 µg/mL (≈ 0.0504 µM) throughout. The MIC in data set [7] and in data set [8] was 2 µg/mL (≈ 1.68 µM) each time. The molecule also yielded an IC50 at 72 h in [9] of 320 ± 31.5 µg/mL (≈ 269 µM).
Take `CC[C@H](C)CCCCC(=O)N[C@@H](CCN)C(=O)N[C@H](C(=O)N[C@@H](CCN)C(=O)N[C@H]1CCNC(=O)[C@H]([C@@H](C)O)NC(=O)[C@H](CCN)NC(=O)[C@H](CCN)NC(=O)[C@H]([C@@H](C)O)NC(=O)[C@@H](Cc2ccccc2)NC(=O)[C@H](CCN)NC1=O)[C@@H](C)O` [Compound 16, (S)-6-methyloctanoyl-Dab-Thr-Dab-ring(4-10)[Dab-Dab-D-Phe-Thr-Dab-Dab-Thr]] (X1-[Dab]T[Dab][Dab][Dab][dF]T[Dab][Dab]T; lactam 4-C): the MIC in data set [1], in data set [2], in [3], in data set [4], in data set [5] and in data set [6] was not above 0.03 µg/mL in each case. Moreover, the minimum inhibitory concentration (MIC) in data set [7] and in data set [8] was 0.5 µg/mL (≈ 0.42 µM) throughout. Further, the half-maximal inhibitory concentration (IC50) at 72 h in data set [9] is more than 500 µg/mL.
